In data set [1] the target is T1, Vascular endothelial growth factor receptor 2 (Homo sapiens, UniProt P35968). Briefly: Inhibition of VEGFR2 by cell-based assay. The data set is classed as functional.
In data set [2] the target is T1, Vascular endothelial growth factor receptor 2. Briefly: Inhibition of VEGFR2 by HTRF assay. On the technique in general: TR-FRET usually uses a lanthanide donor and a delayed reading to cut background.
Data set [3] deals with T2, Vascular endothelial growth factor receptor 1 (Homo sapiens, UniProt P17948). The experiment in a line: Inhibition of VEGFR1 by HTRF assay.
Target sequence in this assay (P17948 whole entry): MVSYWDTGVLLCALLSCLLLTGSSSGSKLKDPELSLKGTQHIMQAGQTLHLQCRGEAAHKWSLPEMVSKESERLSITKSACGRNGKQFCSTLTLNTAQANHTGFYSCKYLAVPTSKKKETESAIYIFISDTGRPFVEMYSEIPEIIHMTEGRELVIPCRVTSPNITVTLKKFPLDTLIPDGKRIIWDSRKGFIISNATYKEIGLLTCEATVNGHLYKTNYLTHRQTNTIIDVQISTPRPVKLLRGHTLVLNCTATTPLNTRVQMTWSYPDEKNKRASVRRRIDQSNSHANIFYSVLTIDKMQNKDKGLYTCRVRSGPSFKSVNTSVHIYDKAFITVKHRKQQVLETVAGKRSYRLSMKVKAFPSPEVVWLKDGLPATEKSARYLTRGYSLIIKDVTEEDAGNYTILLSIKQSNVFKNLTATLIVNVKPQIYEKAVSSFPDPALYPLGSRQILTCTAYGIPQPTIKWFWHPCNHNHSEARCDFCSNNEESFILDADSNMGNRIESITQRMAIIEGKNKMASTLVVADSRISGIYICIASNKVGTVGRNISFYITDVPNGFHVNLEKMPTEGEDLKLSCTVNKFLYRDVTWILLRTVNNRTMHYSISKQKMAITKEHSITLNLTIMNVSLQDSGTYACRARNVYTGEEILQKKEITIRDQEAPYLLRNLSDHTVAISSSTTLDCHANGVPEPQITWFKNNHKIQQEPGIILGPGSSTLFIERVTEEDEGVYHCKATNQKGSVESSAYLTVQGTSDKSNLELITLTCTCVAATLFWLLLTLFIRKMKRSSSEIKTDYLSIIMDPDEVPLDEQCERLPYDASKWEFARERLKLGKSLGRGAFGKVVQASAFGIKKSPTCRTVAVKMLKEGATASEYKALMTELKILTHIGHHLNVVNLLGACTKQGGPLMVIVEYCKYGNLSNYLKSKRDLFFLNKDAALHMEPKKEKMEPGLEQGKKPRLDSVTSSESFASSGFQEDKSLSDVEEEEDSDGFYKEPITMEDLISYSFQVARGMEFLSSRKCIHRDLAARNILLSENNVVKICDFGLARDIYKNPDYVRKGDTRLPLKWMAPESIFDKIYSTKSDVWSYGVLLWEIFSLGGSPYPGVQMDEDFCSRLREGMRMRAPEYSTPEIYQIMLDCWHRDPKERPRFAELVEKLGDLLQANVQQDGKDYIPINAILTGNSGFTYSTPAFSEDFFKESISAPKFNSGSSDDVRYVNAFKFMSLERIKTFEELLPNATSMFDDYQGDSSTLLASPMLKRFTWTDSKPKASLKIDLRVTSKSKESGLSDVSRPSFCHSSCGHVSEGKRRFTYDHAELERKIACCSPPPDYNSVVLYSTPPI
In data set [4] the target is T1, Vascular endothelial growth factor receptor 2. Briefly: Inhibition of VEGFR2 by HTRF assay.
Data set [5] in a line: Intrinsic permeability across Caco-2 cell monolayers. The settings on record: human.
Data set [6] deals with T1, Vascular endothelial growth factor receptor 2. The experiment in a line: Inhibition of VEGFR2 by [32P]ATP-competitive radioassay.
In data set [7] the target is T2, Vascular endothelial growth factor receptor 1. The experiment in a line: Inhibition of VEGFR1 by HTRF assay.
Target sequence in this assay (P17948 whole entry, looked up): as the sequence (P17948 whole entry) above

Molecules are shown by their SMILES. Bounds are passed on as bounds.

By IC50 is commonly meant the concentration that inhibits the measured activity by half. A high value points to lower potency. By Papp is commonly meant a coefficient for how fast a substance crosses the barrier. Low values mean poor permeation, high ones ready permeation. By Ki is commonly meant a dissociation constant, usually derived from enzyme kinetics or from competition with a known ligand.

T1 sequence (P35968 whole entry): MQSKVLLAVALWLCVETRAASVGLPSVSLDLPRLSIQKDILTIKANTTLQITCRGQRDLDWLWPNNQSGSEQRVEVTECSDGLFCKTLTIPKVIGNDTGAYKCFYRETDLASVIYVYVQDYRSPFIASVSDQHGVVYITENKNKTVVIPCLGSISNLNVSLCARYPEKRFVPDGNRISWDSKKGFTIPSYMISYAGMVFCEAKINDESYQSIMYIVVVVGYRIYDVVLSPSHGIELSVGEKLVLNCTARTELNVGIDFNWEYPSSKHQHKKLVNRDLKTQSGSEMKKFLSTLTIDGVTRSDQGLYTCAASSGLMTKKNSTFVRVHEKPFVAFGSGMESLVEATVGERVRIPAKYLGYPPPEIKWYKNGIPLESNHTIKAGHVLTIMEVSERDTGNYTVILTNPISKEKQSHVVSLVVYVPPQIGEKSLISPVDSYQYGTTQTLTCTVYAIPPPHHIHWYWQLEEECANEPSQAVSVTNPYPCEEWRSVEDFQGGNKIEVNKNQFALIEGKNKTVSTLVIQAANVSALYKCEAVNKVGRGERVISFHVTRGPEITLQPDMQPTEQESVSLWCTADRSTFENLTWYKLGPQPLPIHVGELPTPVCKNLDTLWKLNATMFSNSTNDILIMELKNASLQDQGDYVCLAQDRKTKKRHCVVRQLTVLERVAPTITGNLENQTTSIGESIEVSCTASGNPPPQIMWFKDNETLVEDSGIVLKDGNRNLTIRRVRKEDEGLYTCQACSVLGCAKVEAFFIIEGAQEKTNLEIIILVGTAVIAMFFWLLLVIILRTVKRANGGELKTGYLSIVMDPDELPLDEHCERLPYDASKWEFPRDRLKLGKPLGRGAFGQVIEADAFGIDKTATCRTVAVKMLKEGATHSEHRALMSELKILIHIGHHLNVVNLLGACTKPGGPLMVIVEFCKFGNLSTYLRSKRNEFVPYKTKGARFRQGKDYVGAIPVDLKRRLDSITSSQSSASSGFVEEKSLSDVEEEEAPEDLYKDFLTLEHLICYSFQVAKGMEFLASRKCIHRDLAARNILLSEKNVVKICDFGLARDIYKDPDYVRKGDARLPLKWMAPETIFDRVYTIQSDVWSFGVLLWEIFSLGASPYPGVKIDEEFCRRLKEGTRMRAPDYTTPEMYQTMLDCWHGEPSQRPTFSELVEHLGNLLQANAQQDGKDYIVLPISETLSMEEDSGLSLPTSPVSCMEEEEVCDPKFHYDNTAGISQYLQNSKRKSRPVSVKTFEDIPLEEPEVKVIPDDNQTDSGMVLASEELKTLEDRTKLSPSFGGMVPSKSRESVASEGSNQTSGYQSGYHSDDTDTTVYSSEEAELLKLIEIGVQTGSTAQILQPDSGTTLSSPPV

For `Cn1cnc(NCc2ccc3c(c2)OCO3)c1C(=O)Nc1cccc(C(F)(F)F)c1`, the IC50 was greater than 10000 nM in data set [1], 3120 nM in data set [2] and 2270 nM in data set [3].
The like results for `Cn1cnc(NCc2ccc3c(c2)OCO3)c1C(=O)Nc1ccc(C(F)(F)F)cc1` were, in that order, greater than 10000 nM, 2550 nM and 1680 nM.
As for `Cn1cnc(NCc2ccncc2)c1C(=O)Nc1ccc(C(C)(C)C)cc1`, the IC50 turned out to be 87 nM in data set [4], 64 nM in data set [1] and 110 nM in data set [7]. Besides, the Papp in data set [5] is 7.55 ×10⁻⁶ cm/s. The compound also returned a Ki in data set [6] of 200 nM.
With `Cn1cnc(NCc2ccncc2)c1C(=O)Nc1ccc(Cl)c(C(F)(F)F)c1`, the values for the IC50 in data set [4], in data set [1] and in data set [7] were 950 nM, 170 nM and 1260 nM, respectively. For the same compound, the Papp in data set [5] is 6.15 ×10⁻⁶ cm/s.
Take `Cn1ncc(NCc2ccc3c(c2)OCO3)c1C(=O)Nc1cccc(C(F)(F)F)c1`: the IC50 in data set [1] is greater than 10000 nM; in data set [2], greater than 10000 nM; in data set [3] it was 5290 nM.
As for `Cc1cc(NC(=O)c2c(NCc3ccncc3)cnn2C)ccc1C(F)(F)F`, the results for the IC50 in data set [4], in data set [1] and in data set [7] were 330 nM, 69 nM and 560 nM, respectively. Besides, the Papp in data set [5] is 5.52 ×10⁻⁶ cm/s.
The like results for `Cn1cnc(NCc2ccncc2)c1C(=O)Nc1ccc(C(F)(F)F)c(Cl)c1` were, in that order, 290 nM, 88 nM, 350 nM and 3.6 ×10⁻⁶ cm/s.
For the compound `Cc1cc(NC(=O)c2c(NCc3ccncc3)ncn2C)ccc1C(F)(F)F`, the IC50 is 210 nM in data set [4], 64 nM in data set [1] and 510 nM in data set [7]. Moreover, the apparent permeability (Papp) in data set [5] was 7.1 ×10⁻⁶ cm/s. The Ki in data set [6] is 160 nM.
Consider `Cn1ncc(NCc2ccncc2)c1C(=O)Nc1ccc(Cl)c(Cl)c1`, for which the values for the IC50 in data set [4], in data set [1] and in data set [7] were 250 nM, 82 nM and 360 nM, respectively. The same compound had a Papp in data set [5] of 6.73 ×10⁻⁶ cm/s.
In the same order, the values of `Cn1ncc(NCc2ccncc2)c1C(=O)Nc1ccc(C(C)(C)C)cc1` are 130 nM, 45 nM, 180 nM and 6.25 ×10⁻⁶ cm/s.
On to `CC(C)c1ccc(NC(=O)c2c(NCc3ccncc3)ncn2C)cc1`, for which the IC50 in data set [4] worked out at 180 nM; in data set [1], 75 nM; in data set [7], 270 nM. The apparent permeability (Papp) in data set [5] is 6.2 ×10⁻⁶ cm/s.
For the compound `Cn1ncc(NCc2ccncc2)c1C(=O)Nc1ccc(OC(F)(F)F)cc1`, the IC50 in data set [4] was found to be 730 nM; in data set [1], 64 nM; in data set [7], 1870 nM. For the same compound, in data set [5], the Papp was 5.42 ×10⁻⁶ cm/s. In data set [6], this compound displayed a Ki of 170 nM.
Turning to `COc1ccc(NC(=O)c2c(NCc3ccncc3)ncn2C)cc1OC`, the half-maximal inhibitory concentration (IC50) in data set [4] worked out at 210 nM; in data set [1], 57 nM; in data set [7], 350 nM. In data set [5], this compound gave a Papp of 8.22 ×10⁻⁶ cm/s.
